# Laboratory results reported in ChEMBL document CHEMBL3872249, “Computer design, synthesis, and bioactivity analyses of drugs like fingolimod used in the treatment of multiple sclerosis” (Bioorg Med Chem, 2017).
# Tests used:
# Format in all cases: functional
# SH-SY5Y [1] = assay: Effect on IL10 mRNA expression in human SH-SY5Y cells at EC10 by qPCR method relative to beta-actin
# SH-SY5Y [2] = assay: Effect on IL1B mRNA expression in human SH-SY5Y cells at EC10 by qPCR method relative to beta-actin
# SH-SY5Y [3] = assay: Effect on IL6 mRNA expression in human SH-SY5Y cells at EC10 by qPCR method relative to beta-actin
# SH-SY5Y [4] = assay: Effect on ICAM1 mRNA expression in human SH-SY5Y cells at EC10 by qPCR method relative to beta-actin
# SH-SY5Y [5] = assay: Effect on MMP9 mRNA expression in human SH-SY5Y cells at EC10 by qPCR method relative to beta-actin
# SH-SY5Y [6] = assay: Effect on EDNRA mRNA expression in human SH-SY5Y cells at EC10 by qPCR method relative to beta-actin
# SH-SY5Y [7] = assay: Effect on JUN mRNA expression in human SH-SY5Y cells at EC10 by qPCR method relative to beta-actin
# SH-SY5Y [8] = assay: Effect on OPRD1 mRNA expression in human SH-SY5Y cells at EC10 by qPCR method relative to beta-actin
# SH-SY5Y [9] = assay: Effect on TSHR mRNA expression in human SH-SY5Y cells at EC10 by qPCR method relative to beta-actin
# SH-SY5Y [10] = assay: Effect on FGF2 mRNA expression in human SH-SY5Y cells at EC10 by qPCR method relative to beta-actin
# SH-SY5Y [11] = assay: Effect on CFLAR mRNA expression in human SH-SY5Y cells at EC10 by qPCR method relative to beta-actin
# SH-SY5Y [12] = assay: Effect on GRM1 mRNA expression in human SH-SY5Y cells at EC10 by qPCR method relative to beta-actin
# SH-SY5Y [13] = assay: Effect on AGTR2 mRNA expression in human SH-SY5Y cells at EC10 by qPCR method relative to beta-actin
# U-118-MG [14] = assay: Effect on IFNG mRNA expression in human U118MG cells at EC10 by qPCR method relative to beta-actin
# U-118-MG [15] = assay: Effect on IL2 mRNA expression in human U118MG cells at EC10 by qPCR method relative to beta-actin
# U-118-MG [16] = assay: Effect on EPHA1 mRNA expression in human U118MG cells at EC10 by qPCR method relative to beta-actin
# U-118-MG [17] = assay: Effect on JUN mRNA expression in human U118MG cells at EC10 by qPCR method relative to beta-actin
# U-118-MG [18] = assay: Effect on MYC mRNA expression in human U118MG cells at EC10 by qPCR method relative to beta-actin
# U-118-MG [19] = assay: Effect on COL1A1 mRNA expression in human U118MG cells at EC10 by qPCR method relative to beta-actin
# U-118-MG [20] = assay: Effect on CYP19A1 mRNA expression in human U118MG cells at EC10 by qPCR method relative to beta-actin
# U-118-MG [21] = assay: Effect on NOS2 mRNA expression in human U118MG cells at EC10 by qPCR method relative to beta-actin
# U-118-MG [22] = assay: Effect on TSHR mRNA expression in human U118MG cells at EC10 by qPCR method relative to beta-actin
# U-118-MG [23] = assay: Effect on AKT1 mRNA expression in human U118MG cells at EC10 by qPCR method relative to beta-actin
# U-118-MG [24] = assay: Effect on AGTR2 mRNA expression in human U118MG cells at EC10 by qPCR method relative to beta-actin
# U-118-MG [25] = assay: Effect on DRD2 mRNA expression in human U118MG cells at EC10 by qPCR method relative to beta-actin
# SK-N-SH [26] = assay: Effect on CXCL10 mRNA expression in human SK-N-SH cells at EC10 by qPCR method relative to beta-actin
# SK-N-SH [27] = assay: Effect on IL1B mRNA expression in human SK-N-SH cells at EC10 by qPCR method relative to beta-actin
# SK-N-SH [28] = assay: Effect on BCL2 mRNA expression in human SK-N-SH cells at EC10 by qPCR method relative to beta-actin
# SK-N-SH [29] = assay: Effect on FASLG mRNA expression in human SK-N-SH cells at EC10 by qPCR method relative to beta-actin
# SK-N-SH [30] = assay: Effect on VEGFA mRNA expression in human SK-N-SH cells at EC10 by qPCR method relative to beta-actin
# SK-N-SH [31] = assay: Effect on VCAM1 mRNA expression in human SK-N-SH cells at EC10 by qPCR method relative to beta-actin
# SK-N-SH [32] = assay: Effect on MMP9 mRNA expression in human SK-N-SH cells at EC10 by qPCR method relative to beta-actin
# SK-N-SH [33] = assay: Effect on EDNRA mRNA expression in human SK-N-SH cells at EC10 by qPCR method relative to beta-actin
# SK-N-SH [34] = assay: Effect on FOXP3 mRNA expression in human SK-N-SH cells at EC10 by qPCR method relative to beta-actin
# SK-N-SH [35] = assay: Effect on JUN mRNA expression in human SK-N-SH cells at EC10 by qPCR method relative to beta-actin
# SK-N-SH [36] = assay: Effect on MYC mRNA expression in human SK-N-SH cells at EC10 by qPCR method relative to beta-actin
# SK-N-SH [37] = assay: Effect on OPRD1 mRNA expression in human SK-N-SH cells at EC10 by qPCR method relative to beta-actin
# SK-N-SH [38] = assay: Effect on AKT1 mRNA expression in human SK-N-SH cells at EC10 by qPCR method relative to beta-actin
# SK-N-SH [39] = assay: Effect on CFLAR mRNA expression in human SK-N-SH cells at EC10 by qPCR method relative to beta-actin
# SK-N-SH [40] = assay: Effect on PIK3CG mRNA expression in human SK-N-SH cells at EC10 by qPCR method relative to beta-actin
# SH-SY5Y [41] = assay: Effect on MAG mRNA expression in human SH-SY5Y cells at EC10 by qPCR method relative to beta-actin
# SH-SY5Y [42] = assay: Effect on CCL3 mRNA expression in human SH-SY5Y cells at EC10 by qPCR method relative to beta-actin
# U-118-MG [43] = assay: Effect on CCL3 mRNA expression in human U118MG cells at EC10 by qPCR method relative to beta-actin
# SK-N-SH [44] = assay: Effect on CCL3 mRNA expression in human SK-N-SH cells at EC10 by qPCR method relative to beta-actin
structure (smiles),measurement,setting,value
CCCCCCCCn1nnnc1CCC(N)(CO)CO.Cl,fold change (FC),SH-SY5Y [1],-7.3448
same,fold change (FC),SH-SY5Y [2],-6.5966
same,fold change (FC),SH-SY5Y [3],-4.4551
same,fold change (FC),SH-SY5Y [4],-7.3035
same,fold change (FC),SH-SY5Y [5],-5.7901
same,fold change (FC),SH-SY5Y [6],3.6859
same,fold change (FC),SH-SY5Y [7],-4.7214
same,fold change (FC),SH-SY5Y [8],2.8007
same,fold change (FC),SH-SY5Y [9],4.7801
same,fold change (FC),SH-SY5Y [10],-3.8516
same,fold change (FC),SH-SY5Y [11],-3.1434
same,fold change (FC),SH-SY5Y [12],-4.806
same,fold change (FC),SH-SY5Y [13],8.9431
same,fold change (FC),U-118-MG [14],-4.5394
same,fold change (FC),U-118-MG [15],-4.2107
same,fold change (FC),U-118-MG [16],-4.2116
same,fold change (FC),U-118-MG [17],-5.0916
same,fold change (FC),U-118-MG [18],-4.1285
same,fold change (FC),U-118-MG [19],-5.8779
same,fold change (FC),U-118-MG [20],-3.3614
same,fold change (FC),U-118-MG [21],-4.0673
same,fold change (FC),U-118-MG [22],3.1513
same,fold change (FC),U-118-MG [23],-2.6892
same,fold change (FC),U-118-MG [24],4.8726
same,fold change (FC),U-118-MG [25],-2.5398
same,fold change (FC),SK-N-SH [26],-4.7219
same,fold change (FC),SK-N-SH [27],-4.7796
same,fold change (FC),SK-N-SH [28],-7.8184
same,fold change (FC),SK-N-SH [29],-2.9626
same,fold change (FC),SK-N-SH [30],-7.9138
same,fold change (FC),SK-N-SH [31],-5.4618
same,fold change (FC),SK-N-SH [32],-5.1049
same,fold change (FC),SK-N-SH [33],7.0402
same,fold change (FC),SK-N-SH [34],-3.4447
same,fold change (FC),SK-N-SH [35],-7.2696
same,fold change (FC),SK-N-SH [36],-4.315
same,fold change (FC),SK-N-SH [37],3.2561
same,fold change (FC),SK-N-SH [38],-5.3124
same,fold change (FC),SK-N-SH [39],-3.3101
same,fold change (FC),SK-N-SH [40],-7.7108
CCCCCCCCc1ccc(CCC(N)(CO)CO)cc1 [FINGOLIMOD],fold change (FC),SH-SY5Y [41],4.3772
same,fold change (FC),SH-SY5Y [42],-4.8232
same,fold change (FC),SH-SY5Y [1],-4.2501
same,fold change (FC),SH-SY5Y [2],-4.7158
same,fold change (FC),SH-SY5Y [3],-6.498
same,fold change (FC),SH-SY5Y [4],-6.0839
same,fold change (FC),SH-SY5Y [5],-6.6923
same,fold change (FC),SH-SY5Y [6],6.8804
same,fold change (FC),SH-SY5Y [7],-3.5677
same,fold change (FC),SH-SY5Y [8],5.0193
same,fold change (FC),SH-SY5Y [9],-4.0629
same,fold change (FC),SH-SY5Y [10],-8.2392
same,fold change (FC),SH-SY5Y [11],-13.7609
same,fold change (FC),SH-SY5Y [12],-20.6061
same,fold change (FC),SH-SY5Y [13],3.2887
same,fold change (FC),U-118-MG [43],-3.4017
same,fold change (FC),U-118-MG [14],-5.5428
same,fold change (FC),U-118-MG [16],-3.7679
same,fold change (FC),U-118-MG [17],-3.0183
same,fold change (FC),U-118-MG [18],-4.9203
same,fold change (FC),U-118-MG [19],-5.339
same,fold change (FC),U-118-MG [20],-4.301
same,fold change (FC),U-118-MG [21],-5.6458
same,fold change (FC),U-118-MG [22],-3.664
same,fold change (FC),U-118-MG [23],-2.5763
same,fold change (FC),U-118-MG [24],4.8347
same,fold change (FC),U-118-MG [25],-2.6579
same,fold change (FC),SK-N-SH [44],-4.0682
same,fold change (FC),SK-N-SH [26],-5.2302
same,fold change (FC),SK-N-SH [27],-5.3866
same,fold change (FC),SK-N-SH [28],-2.7547
same,fold change (FC),SK-N-SH [29],-3.5415
same,fold change (FC),SK-N-SH [30],-7.7644
same,fold change (FC),SK-N-SH [31],-7.0341
same,fold change (FC),SK-N-SH [32],-13.1489
same,fold change (FC),SK-N-SH [33],7.6112
same,fold change (FC),SK-N-SH [34],-4.444
same,fold change (FC),SK-N-SH [35],-2.7499
same,fold change (FC),SK-N-SH [36],-8.3361
same,fold change (FC),SK-N-SH [37],4.9782
same,fold change (FC),SK-N-SH [38],-12.2684
same,fold change (FC),SK-N-SH [39],-11.0378
same,fold change (FC),SK-N-SH [40],-5.7333
CCCCCCCCn1nnnc1-c1ccc(C(O)CC(N)(CO)CO)cc1.Cl (stereo not drawn),fold change (FC),SH-SY5Y [41],2.631
same,fold change (FC),SH-SY5Y [42],-2.4869
same,fold change (FC),SH-SY5Y [1],-3.3797
same,fold change (FC),SH-SY5Y [3],-3.0565
same,fold change (FC),SH-SY5Y [4],-3.763
same,fold change (FC),SH-SY5Y [5],-3.9092
same,fold change (FC),U-118-MG [43],-3.7241
same,fold change (FC),U-118-MG [15],-4.5247
same,fold change (FC),SK-N-SH [44],-5.716
same,fold change (FC),SK-N-SH [26],-6.1156
